Laboratory results published in patent publication US9409905B2, “Antibacterial compounds and methods for use” (PTC THERAPEUTICS, INC., priority 2011, dated 2016).
In brackets after ≈: the same amount, converted by molar mass.

Columns and labels:
[1] = tested on: Pseudomonas aeruginosa (P. aeruginosa) 27853; test: Antibacterial activity, MIC (Table 5); format: cell-based; conditions: P. aeruginosa 27853, read-out: MIC, 27853
In short: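 Microbroth dilution; MIC (μg/mL) = lowest concentration with no macroscopically visible growth.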

E. coli LZ3111 = test: Antibacterial activity, MIC, quinolone resistant strain (Table 2); format: cell-based; conditions: Escherichia coli, LZ3111, read-out: MIC LZ3111
In short: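 Broth microdilution. Read-out: MIC in μg/mL, taken as lowest concentration with no macroscopically visible growth.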

E. coli ELZ4000 = test: Antibacterial activity, MIC, multi-drug resistant clinical isolate (Table 3); format: cell-based; conditions: Escherichia coli, ELZ4000, read-out: MIC ELZ4000
Excerpt: (§1) The antibacterial activity from a microbroth dilution method may be presented as the minimum inhibitory concentration (MIC in μg/mL). The MIC value is the lowest concentration of drug which prevents macroscopically visible growth under test conditions.
(§2) Antibacterial activity of test compounds against E. coli ELZ4000 and E. coli ELZ4251 multi-drug resistant clinical isolates is shown in Table 3.

E. coli ELZ4251 = test: as above; format: cell-based; conditions: Escherichia coli
Excerpt: as §1, §2

[2] = tested on: Staphylococcus aureus (S. aureus) 29213; test: Antibacterial activity, microbroth dilution MIC (Table 1); format: cell-based; conditions: microbroth dilution, Gram-positive S. aureus 29213, read-out: MIC, 29213
In short: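 Each strain is exposed to test compound in a microbroth dilution series; visible growth is scored macroscopically, and the lowest growth-free concentration is recorded as MIC in μg/mL.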

[3] = tested on: Escherichia coli (E. coli) BAS849; test: as above; format: cell-based; conditions: microbroth dilution, super sensitive Gram-negative E. coli BAS849, read-out: MIC, BAS849
In short: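 MIC (μg/mL) is taken as the lowest concentration with no macroscopically visible growth. Strains tested by microbroth dilution: Gram-positive S. aureus 29213, control Gram-negative E. coli 25922, and super-sensitive E. coli BAS849.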

E. coli 25922 = test: as above; format: cell-based, Escherichia coli; conditions: Escherichia coli; microbroth dilution; control Gram-negative E. coli 25922 strain; read-out: MIC, 25922
In short: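 Broth microdilution; endpoint = no macroscopic growth; value = lowest inhibiting concn, μg/mL.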

SMILES	MIC [1]	MIC (E. coli LZ3111)	MIC (E. coli ELZ4000)	MIC (E. coli ELZ4251)	MIC [2]	MIC [3]	MIC (E. coli 25922)
CCc1c(-c2ccc3ncccc3c2)[nH]c(=O)c(C(=O)O)c1O [Cpd 20, 5-ethyl-4-hydroxy-2-oxo-6-(quinolin-6-yl)-1,2-dihydropyridine-3-carboxylic acid]	12.5 to 150 µg/mL (≈ 40.3 to 483 µM)	3.5 to 12.5 µg/mL (≈ 11.3 to 40.3 µM)	12.5 to 150 µg/mL (≈ 40.3 to 483 µM)	3.5 to 12.5 µg/mL (≈ 11.3 to 40.3 µM)	12.5 to 150 µg/mL (≈ 40.3 to 483 µM)	1 to 3.5 µg/mL (≈ 3.22 to 11.3 µM)	12.5 to 150 µg/mL (≈ 40.3 to 483 µM)
CCc1c(-c2ccc3c(c2)cc(CN2CC4CC2CN4)n3C)[nH]c(=O)c(C(=O)O)c1O (centres unmarked) [Cpd 182, 6-(2-(2,5-diazabicyclo[2.2.1]heptan-2-ylmethyl)-1-methyl-1H-indol-5-yl)-5-ethyl-4-hydroxy-2-oxo-1,2-dihydropyridine-3-carboxylic acid]	12.5 to 150 µg/mL (≈ 29.6 to 355 µM)	3.5 to 12.5 µg/mL (≈ 8.28 to 29.6 µM)	12.5 to 150 µg/mL (≈ 29.6 to 355 µM)	12.5 to 150 µg/mL (≈ 29.6 to 355 µM)	12.5 to 150 µg/mL (≈ 29.6 to 355 µM)	1 to 3.5 µg/mL (≈ 2.37 to 8.28 µM)	12.5 to 150 µg/mL (≈ 29.6 to 355 µM)
CCc1c(-c2ccc3c(c2)cc(CN(C)C2CCCC2)n3C)[nH]c(=O)c(C(=O)O)c1O.Cl [Cpd 211, 6-(2-((cyclopentyl(methyl)amino)methyl)-1-methyl-1H-indol-5-yl)-5-ethyl-4-hydroxy-2-oxo-1,2-dihydropyridine-3-carboxylic acid hydrochloride]	12.5 to 150 µg/mL	3.5 to 12.5 µg/mL	12.5 to 150 µg/mL	12.5 to 150 µg/mL	3.5 to 12.5 µg/mL	< 1 µg/mL	1 to 3.5 µg/mL
CCc1c(-c2ccc3c(c2)cc(CNCc2ccccn2)n3C)[nH]c(=O)c(C(=O)O)c1O.Cl [Cpd 219, 5-ethyl-4-hydroxy-6-(1-methyl-2-((pyridin-2-ylmethylamino)methyl)-1H-indol-5-yl)-2-oxo-1,2-dihydropyridine-3-carboxylic acid hydrochloride]	12.5 to 150 µg/mL	3.5 to 12.5 µg/mL	12.5 to 150 µg/mL	12.5 to 150 µg/mL	1 to 3.5 µg/mL	< 1 µg/mL	1 to 3.5 µg/mL
CCc1c(-c2ccc3c(c2)cc(CNCC2CCOCC2)n3C)[nH]c(=O)c(C(=O)O)c1O.Cl [Cpd 227, 5-ethyl-4-hydroxy-6-(1-methyl-2-(((tetrahydro-2H-pyran-4-yl)methylamino)methyl)-1H-indol-5-yl)-2-oxo-1,2-dihydropyridine-3-carboxylic acid hydrochloride]	12.5 to 150 µg/mL	12.5 to 150 µg/mL	12.5 to 150 µg/mL	12.5 to 150 µg/mL	3.5 to 12.5 µg/mL	< 1 µg/mL	1 to 3.5 µg/mL
CCc1c(-c2ccc3c(c2)cc(CN2CCCNCC2)n3C)[nH]c(=O)c(C(=O)O)c1O.Cl.Cl [Cpd 239, 6-(2-((1,4-diazepan-1-yl)methyl)-1-methyl-1H-indol-5-yl)-5-ethyl-4-hydroxy-2-oxo-1,2-dihydropyridine-3-carboxylic acid dihydrochloride]	12.5 to 150 µg/mL	3.5 to 12.5 µg/mL	12.5 to 150 µg/mL	3.5 to 12.5 µg/mL	12.5 to 150 µg/mL	1 to 3.5 µg/mL	3.5 to 12.5 µg/mL
CCc1c(-c2ccc3c(c2)cc(CNC2CCCCC2)n3C)[nH]c(=O)c(C(=O)O)c1O.Cl [Cpd 241, 6-(2-((cyclohexylamino)methyl)-1-methyl-1H-indol-5-yl)-5-ethyl-4-hydroxy-2-oxo-1,2-dihydropyridine-3-carboxylic acid hydrochloride]	12.5 to 150 µg/mL	3.5 to 12.5 µg/mL	12.5 to 150 µg/mL	3.5 to 12.5 µg/mL	3.5 to 12.5 µg/mL	< 1 µg/mL	< 1 µg/mL
CCc1c(-c2ccc3c(c2)cc(CN2CCCC(O)C2)n3C)[nH]c(=O)c(C(=O)O)c1O (centres unmarked) [Cpd 255, 5-ethyl-4-hydroxy-6-(2-((3-hydroxypiperidin-1-yl)methyl)-1-methyl-1H-indol-5-yl)-2-oxo-1,2-dihydropyridine-3-carboxylic acid]	12.5 to 150 µg/mL (≈ 29.4 to 353 µM)	12.5 to 150 µg/mL (≈ 29.4 to 353 µM)	12.5 to 150 µg/mL (≈ 29.4 to 353 µM)	12.5 to 150 µg/mL (≈ 29.4 to 353 µM)	3.5 to 12.5 µg/mL (≈ 8.23 to 29.4 µM)	< 1 µg/mL	1 to 3.5 µg/mL (≈ 2.35 to 8.23 µM)
